This note sets out measurements from US20030050193A1, “Herbicide combinations comprising specific sulfonylureas” (priority 2001, published 2003).

Holding throughout (type): in vivo
The test system of one data set is Galium aparine. Description: Herbicidal action (greenhouse trials), post-emergence, visual scoring. Conditions: Example 1; application rate g of ai/ha: amidosulfuron 15, florasulam 4, A + B 15 + 4; scored approx. 4-6 weeks after application; 100% = all plants dead. The method, then:
(§1) Herbicidal Action (Greenhouse Trials)
(§2) The seeds or rhizome pieces of typical harmful plants were placed into sandy loam soil in round pots, size 13, covered with soil and grown in a greenhouse under good growth conditions. After the harmful plants had emerged, they were treated, as a rule at the 2- to 3-leaf stage, with various dosages of the compositions according to the invention at a water application rate of 100 to 400 l/ha (converted),
(§3) After the treatment (approx. 4-6 weeks after application), the herbidical activity of the active compounds or active compound mixtures was scored visually by comparing the treated plots with the untreated controls. Damage and development of all above-ground parts of the plants was recorded. Scoring was done on a percentage scale (100% action=all plants dead; 50% action=50% of the plants and green plant parts dead; 0% action=no discernible action),
(§4) The results are listed in the tables below, where the activity measured for the independent use of the active compounds (A) and (B) is stated in brackets, […]

A further data set deals with Veronica hederifolia. The data set is described as above. Conditions: Example 2; application rate g of al/ha: amidosulfuron 8, cinidon-ethyl 13, A + B 8 + 13; scored approx. 4-6 weeks after application; 100% = all plants dead. The protocol: as §1, §2, §3, §4
The subject of another data set is Wheat. The experiment in a line: Crop damage in greenhouse trials, visual scoring. Conditions: scored approx. 4-6 weeks after application. The method, then:
as §1, §2, §3, §4

The mark [1] stands for this setting: Example 1, application rate g of ai/ha: amidosulfuron 15, florasulam 4, A + B 15 + 4.
[2] abbreviates: Example 2, application rate g of al/ha: amidosulfuron 8, cinidon-ethyl 13, A + B 8 + 13.

In the case of `COc1cc(OC)nc(NC(=O)NS(=O)(=O)N(C)S(C)(=O)=O)n1` [Amidosulfuron, 1-(4,6-dimethoxypyrimidin-2-yl)-3-mesyl-(methyl)-sulfamoylurea], in the data set with Galium aparine, the “Galium aparine % activity” value turned out to be 35%. In addition, the “Veronica hederifolia % activity” value in the data set on Veronica hederifolia is listed as 0%. Besides, the Wheat % damage in the data set on Wheat (setting [1]) stood at 0%; in the data set on Wheat (setting [2]), 0.

Turning to `CCOC(=O)/C(Cl)=C/c1cc(N2C(=O)C3=C(CCCC3)C2=O)ccc1Cl` [Cinidon-ethyl, ethyl (Z)-2-chloro-3-[2-chloro-5-(1,2-cyclohex-1-enedicarboximido)phenyl]acrylate], the “Veronica hederifolia % activity” value in the data set on Veronica hederifolia turned out to be 15%. Besides, the Wheat % damage with Wheat (setting [2]) is recorded as 0.

In the case of `COc1ncc(F)c2nc(S(=O)(=O)Nc3c(F)cccc3F)nn12` [Florasulam, 2′,6′,8′-trifluoro-5-methoxy[1,2,4]triazolo[1,5-c]pyrimidine-2-sulfanilide], the “Galium aparine % activity” value in the data set on Galium aparine is listed as 45%. The Wheat % damage in the data set on Wheat (setting [1]) came out at 1%.
